In patent publication US7915245B2, “Methods and compositions of trail-death receptor agonists/activators” (The Board of Regents of the University of Texas System, priority 2007, dated 2011):

Key:
[1] = tested on: normal human hepatocytes; assay: XTT cell viability, normal hepatocytes; assay type: cell-based; details: 0, 1, 3, 5 and 10 μM, 72 h
Procedure: FIGS. 59 A, B & C. DRAs has no effect on cell viability of normal human hepatocytes. Normal human hepatocytes were incubated with various concentrations of DRA11 (0, 1, 3, 5 and 10 μM) (FIG. 59A), DRA9S (0, 1, 3, 5 and 10 μM) (FIG. 59B), and DRA9 (0, 1, 3, 5 and 10 μM) (FIG. 59C) for 72 h. At the end of incubation period, cell viability was measured by XTT assay.
(§1) XTT Assay. Cells (1×10^4 cells per well) were seeded in 96-well plates (flat bottom), and treated with death receptor agonists/activators/small molecules in the presence or absence of TNF-related apoptosis inducing ligand (TRAIL). Plates were incubated for various time points at 37° C. and 5% CO2. Before the end of the experiment, 50 μl XTT (sodium 3′[1-(phenylaminocarbonyl)-3,4-tetrazolium]-bis(4-methoxy-6-nitro) benzene sulfonic acid hydrate) labeling mixture (final concentration, 125 μM sodium XTT and 25 μM PMS) per well was added and plates were incubated for a further 4 h at 37° C. and 5% CO2. The spectrophotometric absorbance of the sample was measured using a microtitre plate (ELISA) reader. The wavelength to measure absorbance of the formazan product was 450 nm, and the reference wavelength was 650 nm.

[2] = tested on: human normal prostate epithelial cells (PrECs); assay: XTT cell viability, normal prostate epithelial cells; assay type: cell-based; details: 72 h
Procedure: (§2) FIG. 22. DRAs have no effect on cell viability in human normal prostate epithelial cells (PrECs). PrECs were treated with DRA11, DRA9 and DRA9S for 72 h. At the end of incubation period, cell viability was measured by XTT assay. Data represent the mean±S.D. Control refers to group treated with DMSO (0.01%).
(§3) FIGS. 60 A, B & C. DRAs has no effect on cell viability of human normal mammary, prostate and lung epithelial cells. Human normal mammary (FIG. 60A), prostate (FIG. 60B) and lung (FIG. 60C) epithelial cells were treated with DRA11 (0-25 μM) for 72 h, and cell viability was measured by XTT assay.
(§4) XTT Assay. Cells (1×10^4 cells per well) were seeded in 96-well plates (flat bottom), and treated with death receptor agonists/activators/small molecules in the presence or absence of TNF-related apoptosis inducing ligand (TRAIL). Plates were incubated for various time points at 37° C. and 5% CO2. […] The spectrophotometric absorbance of the sample was measured using a microtitre plate (ELISA) reader. The wavelength to measure absorbance of the formazan product was 450 nm, and the reference wavelength was 650 nm.
PrECs were treated with DRA11, DRA9 and DRA9S for 72 h. At the end of incubation period, cell viability was measured by XTT assay. […]

[3] = tested on: mesothelioma MS1 cell line; assay: XTT cell viability, mesothelioma MS1; assay type: cell-based; details: then DRA 72 h; for effect of NFκB inhibitor MG132 on the inhibitory effect on cell viability: MG132 2.5 μM 4 h
Procedure: FIG. 44. […] Mesothelioma MS1 cells were treated with NFκB inhibitor MG132 (2.5 μM) for 4 h followed by treatment with various concentrations of DRA11, DRA9, and DRA9S for 72 h. At the end of incubation, cell viability was measured by XTT assay. Data represent the mean±S.D.
(§5) FIG. 54. […] MS1 cells were pretreated with either control peptide (10 μM) or pan caspase inhibitor (z-VAD-fmk, 25 μM) for 2 h, followed by treatment with various doses of DRA11, DRA9 and DRA9S for 72 h. At the end of incubation, cell viability was measured by XTT assay. Data represent the mean±S.D.
as §1

[4] = tested on: human normal mammary epithelial cells (HMECs); assay: XTT cell viability, normal mammary epithelial cells; assay type: cell-based; details: 72 h
Procedure: as §2, with “21.” for “22.”, “mammary” for “prostate”, “(HMECs), HMECs” for “(PrECs). PrECs”
as §3, §4
HMECs were treated with DRA11, DRA9 and DRA9S for 72 h. At the end of incubation period, cell viability was measured by XTT assay. […]

[5] = tested on: breast cancer MDA-MB-231 cell line; assay: XTT cell viability with signaling inhibitor pretreatment, MDA-MB-231; assay type: cell-based, human; details: then DRA 72 h; for effect of Akt inhibitor on the inhibitory effect on cell viability: Akt inhibitor 0.5 μM 4 h pretreatment; for effect of PI-3 kinase inhibitor LY294002 on the inhibitory effect on cell viability: LY294002 2.5 μM 4 h pretreatment; for effect of NFκB inhibitor MG132 on the inhibitory effect on cell viability: MG132 2.5 μM 4 h pretreatment
Procedure: FIG. 39. […] MDA-MB-231 cells were pretreated with NFκB inhibitor MG132 (2.5 μM) for 4 h followed by treatment with various concentrations of DRA11, DRA9, and DRA9S for 72 h. At the end of incubation, cell viability was measured by XTT assay. Data represent the mean±S.D.
FIG. 40. […] MDA-MB-231 cells were pretreated with LY294002 (2.5 μM) for 4 h followed by treatment with various concentrations of DRA11, DRA9, and DRA9S for 72 h. At the end of incubation, cell viability was measured by XTT assay. Data represent the mean±S.D.
FIG. 41. […] MDA-MB-231 cells were pretreated with Akt inhibitor (0.5 μM) for 4 h followed by treatment with various concentrations of DRA11, DRA9, and DRA9S for 72 h. At the end of incubation, cell viability was measured by XTT assay. Data represent the mean±S.D.
as §1

[6] = tested on: mesothelioma REN cell line; assay: XTT cell viability, mesothelioma REN; assay type: cell-based; details: then DRA 72 h; for effect of NFκB inhibitor MG132 on the inhibitory effect on cell viability: MG132 2.5 μM 4 h
Procedure: FIG. 45. […] Mesothelioma REN cells were treated with NFκB inhibitor MG132 (2.5 μM) for 4 h followed by treatment with various concentrations of DRA11, DRA9, and DRA9S for 72 h. At the end of incubation, cell viability was measured by XTT assay. Data represent the mean±S.D.
as §5, with “55.” for “54.”, “REN” for “MS1”, “(z-VAD-fink,” for “(z-VAD-fmk,”
as §1

[7] = tested on: human bronchial epithelial cells (Beas2B); assay: XTT cell viability, bronchial epithelial cells; assay type: cell-based; details: 72 h
Procedure: as §2, with “23.” for “22.”, “bronchial” for “normal prostate”, “(Beas2B). Beas2B cells” for “(PrECs). PrECs”
as §1
Beas2B cells were treated with DRA11, DRA9 and DRA9S for 72 h. At the end of incubation period, cell viability was measured by XTT assay. See, for example, FIG. 23. Data represent the mean ±S.D. Control refers to group treated with DMSO (0.01%).

[8] = z-VAD-fmk 25 μM 2 h pretreatment

Compound | effect on cell viability of normal human hepatocytes [1] | effect on cell viability in PrECs [2] | effect of NFκB inhibitor MG132 on the inhibitory effect on cell viability [3] | effect of pan caspase inhibitor (z-VAD-fmk) on the inhibitory effect on cell viability [3, 8] | effect on cell viability in HMECs [4] | effect of Akt inhibitor on the inhibitory effect on cell viability [5] | effect of PI-3 kinase inhibitor LY294002 on the inhibitory effect on cell viability [5] | effect of NFκB inhibitor MG132 on the inhibitory effect on cell viability [5] | effect of NFκB inhibitor MG132 on the inhibitory effect on cell viability [6] | effect of pan caspase inhibitor (z-VAD-fmk) on the inhibitory effect on cell viability [6, 8] | effect on cell viability in Beas2B cells [7]
CCOc1cc(Br)c(Br)c(/C=N/c2cccc(C(=O)O)c2)c1O [DRA9] | no effect | no effect | enhances the inhibitory effects | blocks the inhibitory effects | no effect | enhances the inhibitory effects | enhances the inhibitory effects | enhances the inhibitory effects | enhances the inhibitory effects | blocks the inhibitory effects | no effect
CCOc1cc(Br)c(Br)c(/C=N/c2cccc(C(=O)O)c2C)c1O [DRA9S] | no effect | no effect | enhances the inhibitory effects |  | no effect | enhances the inhibitory effects | enhances the inhibitory effects | enhances the inhibitory effects | enhances the inhibitory effects |  | no effect
